According to US20210236507A1, “METHODS AND PHARMACEUTICAL COMPOSITIONS FOR PREVENTING RELAPSE IN A PERSON WITH AN ADDICTION USING BETA ADRENERGIC RECEPTOR ANTAGONIST AND MUSCARINIC RECEPTOR ANTAGONIST COMBINATIONS” (MAGNOLIA CNS, LLC, priority 2020, published 2021):
pKi: −log10 of the molar value. “Also recorded” adds a separate entry of the source. Structures can show the parent of a compound that is named as a salt.

What was measured:
humans = assay: Taste and mouth paresthesia of dose forms noted in humans during development; format: in vivo, human; details: sublingual/liquid/solid dose forms
Text: The pharmaceutical compositions of the present invention, when intended for sublingual, buccal, and/or oral delivery, may benefit from taste-masking with natural and/or artificial flavors and/or sweeteners (e.g., mannitol, sucralose, monosaccharides, and disaccharides). Mouth paresthesia (numbness) can occur with propranolol HCl as a perceived adverse effect.
Alternative beta blockers may be chosen that lack these undesirable properties, such as atenolol.
Tablets are formed by compression of the powder using a mechanical tablet press. For instance tablets without coatings are prepared with composition #11 at about 70 mg each, for use as sublingual or oral dose forms. At this size of tablet an adult dose would deliver 20 mg propranolol HC and 0.5 mg scopolamine HBr. Alternatively, tablets may be produced using a triturate tablet mold (e.g., from the vendor PCCA), wherein the triturated powder is moistened with 95% ethanol and then the wells are filled with the moistened composition, extruded from the wells, and dried. The intra-oral mucosal (e.g., sublingual) tablets dissolve rapidly under the tongue, for instance in less than one minute (e.g., solid dose forms #13 and 14). […] Sublingual (or buccal) tablets may be preferred for rapid disintegration, dissolution, absorption and increased bioavailability via the mucosal route. A sublingual tablet of #23 weighing ca. 82 mg delivers a dose of ca. 25 mg atenolol and ca. 0.25 mg of scopolamine HBr. Tablets may also be ingested orally, although it is rational to presume that absorption will be somewhat delayed and bioavailability will be somewhat reduced with many APIs, relative to the mucosal route.

[1] = target: muscarinic acetylcholine receptors (all five human receptor subtypes); details: cited from earlier work

CC(C)NCC(O)COc1cccc2ccccc12 (stereo not drawn) [Propranolol HCl]
mouth/tongue paresthesia (humans; HCl): delayed paresthesia of the tongue
taste (humans; HCl): “acidic” and “medicine” taste
mouth/tongue paresthesia (humans; listed as propranolol HCl, HCl): produces mouth paresthesia
taste (humans; listed as propranolol HCl, HCl): “acidic” and “medicine” taste
mouth/tongue paresthesia (humans; listed as propranolol, HCl): Paresthesia
taste (humans; listed as propranolol, HCl): undesirable taste

CN1[C@@H]2C[C@@H](OC(=O)[C@H](CO)c3ccccc3)C[C@H]1[C@@H]1O[C@@H]12 [Scopolamine]
pKi [1]: 7.28 to 9.47

CC(C)NCC(O)COc1ccc(CC(N)=O)cc1 (stereo not drawn) [atenolol]
mouth/tongue paresthesia (humans): neither property was observed; also recorded: lacked these undesirable characteristics
taste (humans): neither property was observed; also recorded: lacked these undesirable characteristics
